Assay results from ChEMBL document CHEMBL5143520, “Discovery and optimization of new 6, 7-dihydroxy-1, 2, 3, 4-tetrahydroisoquinoline derivatives as potent influenza virus PAN inhibitors” (Eur J Med Chem, 2022).
Calls of active or inactive are those of the source. The rule behind the calls is not given here.

Assays:
Influenza A virus [1] = experiment: Antiviral activity against Influenza A virus A/WSN/33(H1N1) infected in MDCK cells assessed as reduction in virus induced cytopathic effect measured 48 hrs post infection by MTT assay; assay type: functional, organism-based
[2] = Cytotoxicity against MDCK cells assessed as reduction in cell viability incubated for 48 hrs by MTT assay; assay type: toxicity, cell-based, Canis lupus familiaris; conditions: dog
[3] = Selectivity index, ratio of CC50 for cytotoxicity against MDCK cells to EC50 for antiviral activity against Influenza A virus A/WSN/33(H1N1) infected in MDCK cells; assay type: toxicity, cell-based; conditions: dog, read-out: Ratio CC50/EC50
[4] = biological target: Polymerase acidic protein (Influenza A virus (A/Puerto Rico/8/1934(H1N1)), UniProt P03433); experiment: Inhibition of Influenza A virus N-terminal domain of PA endonuclease using 6FAM-TGGCAATATCAGCTCCACA-MGBNFQ as fluorescent substrate by FRET analysis
Influenza A virus [5] = experiment: Antiviral activity against Influenza A virus A/WSN/33(H1N1) infected in human A549 cells assessed as reduction in nucleoprotein expression at 5 to 20 uM measured 24 hrs post infection by Western blot analysis; assay type: functional, organism-based; conditions: dose 5-20 µM
Influenza A virus [6] = experiment: Antiviral activity against Influenza A virus A/WSN/33(H1N1) infected in human A549 cells assessed as reduction in nucleoprotein mRNA expression at 5 to 20 uM measured 24 hrs post infection by qRT-PCR analysis; assay type: functional, organism-based; conditions: dose 5-20 µM
Influenza A virus [7] = experiment: Antiviral activity against Influenza A virus A/WSN/33(H1N1) infected in MDCK cells assessed as reduction in nucleoprotein […] expression at 20 uM measured after 0 to 10 hrs by Western blot based time-of-addition assay; assay type: functional, organism-based; conditions: time 0-10 hrs
Influenza A virus [8] = experiment: Antiviral activity against Influenza A virus A/WSN/33(H1N1) infected in MDCK cells assessed as inhibition of virus replication and translation by measuring reduction in nucleoprotein […] expression at 20 uM measured after 2 to 8 hrs by Western blot based time-of-addition assay; assay type: functional, organism-based; conditions: time 2-8 hrs
Influenza A virus [9] = experiment: Antiviral activity against Influenza A virus A/WSN/33(H1N1) infected in MDCK cells assessed as distribution of PAN protein expression in nucleus and cytoplasm measured 24 hrs post infection by DAPI staining based microscopic analysis; assay type: functional, organism-based

| SMILES | EC50 (Influenza A virus [1]) [µM] | CC50 at 48 h [2] [µM] | selectivity ratio [3] | other results |
| --- | --- | --- | --- | --- |
| COC(=O)[C@@H]1Cc2cc(O)c(O)cc2[C@H](Cc2ccc(O)c(O)c2)N1C(C)=O | 7.65 | > 100 | > 13.1 | IC50 [4]: 530 nM |
| O=CN1[C@H](C(=O)Oc2cccc(F)c2)Cc2cc(O)c(O)cc2[C@@H]1Cc1ccc(O)c(O)c1 | 4.72 | 55.6 | 11.8 |  |
| O=CN1[C@H](C(=O)Oc2ccc(Cl)cc2)Cc2cc(O)c(O)cc2[C@@H]1Cc1ccc(O)c(O)c1 | 3.86 | 57.6 | 15 |  |
| COc1ccc(NC(=O)[C@@H]2Cc3cc(O)c(O)cc3[C@H](Cc3ccc(O)c(O)c3)N2C=O)cc1 | 6.12 | 50.9 | 8.3 |  |
| O=CN1[C@H](C(=O)Oc2cccc(Cl)c2)Cc2cc(O)c(O)cc2[C@@H]1Cc1ccc(O)c(O)c1 | 6.09 | 84.3 | 13.8 |  |
| O=CN1[C@H](C(=O)Oc2ccc(Br)cc2)Cc2cc(O)c(O)cc2[C@@H]1Cc1ccc(O)c(O)c1 | 3.23 | 32.1 | 9.8 |  |
| CN(C)C(=O)[C@@H]1Cc2cc(O)c(O)cc2[C@H](Cc2ccc(O)c(O)c2)N1C=O | > 10 | > 100 |  |  |
| O=CN1[C@H](C(=O)Oc2ccccc2Br)Cc2cc(O)c(O)cc2[C@@H]1Cc1ccc(O)c(O)c1 | 3.21 | 57.1 | 17.8 | IC50 [4]: 260 nM |
| CN1CCc2cc(O)c(O)cc2C1Cc1ccc(O)c(O)c1 (racemic) | > 20 | > 100 |  | IC50 [4]: 1880 nM |
| CCC(=O)N1[C@H](C(=O)OC)Cc2cc(O)c(O)cc2[C@@H]1Cc1ccc(O)c(O)c1 | > 10 | > 100 |  |  |
| COc1ccc(CNC(=O)[C@@H]2Cc3cc(O)c(O)cc3[C@H](Cc3ccc(O)c(O)c3)N2C=O)cc1 | > 10 | > 100 |  |  |
| COC(=O)[C@@H]1Cc2cc(O)c(O)cc2[C@H](Cc2ccc(O)c(O)c2)N1C(=O)CCl | 6.49 | 34.5 | 5.3 |  |
| CCCOC(=O)[C@@H]1Cc2cc(O)c(O)cc2[C@H](Cc2ccc(O)c(O)c2)N1C=O | 7.72 | 75.1 | 9.7 |  |
| O=C(O[C@@H]1Cc2c(O)cc(O)cc2O[C@@H]1c1cc(O)c(O)c(O)c1)c1cc(O)c(O)c(O)c1 [EPIGALOCATECHIN GALLATE] |  |  |  | IC50 [4]: 5860 nM |
| O=CN1[C@H](C(=O)Nc2ccccc2)Cc2cc(O)c(O)cc2[C@@H]1Cc1ccc(O)c(O)c1 | > 10 | > 100 |  |  |
| O=CN1[C@H](C(=O)Oc2ccccc2)Cc2cc(O)c(O)cc2[C@@H]1Cc1ccc(O)c(O)c1 | 7.6 | 77.7 | 10.2 | IC50 [4]: 450 nM |
| CCN(CC)C(=O)[C@@H]1Cc2cc(O)c(O)cc2[C@H](Cc2ccc(O)c(O)c2)N1C=O | > 10 | > 100 |  |  |

| SMILES | EC50 (Influenza A virus [1]) [µM] | CC50 at 48 h [2] [µM] | selectivity ratio [3] | other results |
| --- | --- | --- | --- | --- |
| O=CN1[C@H](C(=O)NCc2ccco2)Cc2cc(O)c(O)cc2[C@@H]1Cc1ccc(O)c(O)c1 | > 10 | > 100 |  |  |
| CCC(CC)[C@H](NC(C)=O)[C@@H]1[C@H](O)[C@@H](C(=O)O)C[C@H]1NC(=N)N [PERAMIVIR ANHYDROUS] |  | > 100 | > 19 |  |
| COC(=O)[C@@H]1Cc2cc(O)c(O)cc2[C@H](Cc2ccc(O)c(O)c2)N1C=O | 7.04 | > 100 | > 14.2 | IC50 [4]: 680 nM |
| O=CN1[C@H](C(=O)O)Cc2cc(O)c(O)cc2[C@@H]1Cc1ccc(O)c(O)c1 | > 20 | > 100 |  |  |
| O=CN1[C@H](C(=O)Oc2ccc(Cl)cc2Cl)Cc2cc(O)c(O)cc2[C@@H]1Cc1ccc(O)c(O)c1 | 3.76 | 21.4 | 5.7 |  |
| O=CN1[C@H](C(=O)Oc2ccccc2Cl)Cc2cc(O)c(O)cc2[C@@H]1Cc1ccc(O)c(O)c1 | 4.5 | > 100 | > 22.2 | Activity (Influenza A virus [5]): Active; Activity (Influenza A virus [6]): Active; Activity (Influenza A virus [7]): Active; Activity (Influenza A virus [8]): Active; Activity (Influenza A virus [9]): Active; IC50 [4]: 280 nM |
| O=CN1[C@H](C(=O)NCc2ccccc2)Cc2cc(O)c(O)cc2[C@@H]1Cc1ccc(O)c(O)c1 | > 10 | > 100 |  |  |
| O=CN1[C@H](C(=O)NCc2cccs2)Cc2cc(O)c(O)cc2[C@@H]1Cc1ccc(O)c(O)c1 | > 10 | > 100 |  |  |
| O=CN1[C@H](C(=O)Oc2c(Cl)cccc2Cl)Cc2cc(O)c(O)cc2[C@@H]1Cc1ccc(O)c(O)c1 | 2.57 | 24.8 | 9.6 |  |
| CCOC(=O)[C@@H]1Cc2cc(O)c(O)cc2[C@H](Cc2ccc(O)c(O)c2)N1C=O | 6.88 | > 100 | > 14.5 |  |
| CN(Cc1ccccc1)C(=O)[C@@H]1Cc2cc(O)c(O)cc2[C@H](Cc2ccc(O)c(O)c2)N1C=O | 8.68 | 91.9 | 10.6 |  |
| O=CN1[C@H](C(=O)Nc2ccc(Cl)cc2)Cc2cc(O)c(O)cc2[C@@H]1Cc1ccc(O)c(O)c1 | 7.89 | > 100 | > 12.7 |  |
| O=CN1[C@H](C(=O)Oc2ccccc2F)Cc2cc(O)c(O)cc2[C@@H]1Cc1ccc(O)c(O)c1 | 5.23 | 61.2 | 11.7 | IC50 [4]: 370 nM |
| COC(=O)[C@@H]1Cc2cc(O)c(O)cc2[C@H](Cc2ccc(O)c(O)c2)N1C(=O)CNC(C)=O | > 20 |  |  |  |
| CCCC(=O)N1[C@H](C(=O)OC)Cc2cc(O)c(O)cc2[C@@H]1Cc1ccc(O)c(O)c1 | > 10 | > 100 |  |  |
| COC(=O)[C@@H]1Cc2cc(O)c(O)cc2[C@H](Cc2ccc(O)c(O)c2)N1C(=O)C(F)(F)F | 6.76 | 76.4 | 11.3 | IC50 [4]: 500 nM |
